Assay results taken from PubChem BioAssay AID248 (DTP/NCI, 2004).
Several values for one entry are separate records, joined by “and”; a condition that tells them apart may be missing. Equal entries are not always repeated. Inconclusive results and toxic doses are left out. No stated cut-off is given here; in the data, active means T/C of 150% or more; inactive means T/C below 125%.

System: L1210 leukemia ip in BDF1 mice, survival T/C
Assay: NCI In Vivo Anticancer Drug Screen. Data for tumor model L1210 Leukemia (intraperitoneal) in B6D2F1 (BDF1) mice
Conditions: endpoint: mean survival time, higher = longer survival
Method in brief: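 Antitumor effect is assessed in tumor-bearing animals. Survival in the compound arm is compared with a vehicle-dosed control arm and expressed as their quotient.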

[1] = dose: 100.0 mg/kg/injection, schedule: Q01DX009 (ip), vehicle: Klucel (hydroxypropylcellulose) (HPC)
[2] = dose: 200.0 mg/kg/injection, schedule: Q01DX009 (ip), vehicle: Klucel (hydroxypropylcellulose) (HPC)
[3] = dose: 100.0 mg/kg/injection, schedule: Q04DX002 (ip), vehicle: saline
[4] = dose: 200.0 mg/kg/injection, schedule: Q04DX002 (ip), vehicle: saline
[5] = dose: 100.0 mg/kg/injection, schedule: Q04DX003 (ip), vehicle: Klucel (hydroxypropylcellulose) (HPC)
[6] = dose: 200.0 mg/kg/injection, schedule: Q04DX003 (ip), vehicle: Klucel (hydroxypropylcellulose) (HPC)
[7] = dose: 50.0 mg/kg/injection, schedule: Q04DX002 (ip), vehicle: saline
[8] = dose: 100.0 mg/kg/injection, schedule: Q01DX009 (ip), vehicle: gum acacia
[9] = dose: 100.0 mg/kg/injection, schedule: Q04DX002 (ip), vehicle: Klucel (hydroxypropylcellulose) (HPC)
[10] = dose: 200.0 mg/kg/injection, schedule: Q04DX002 (ip), vehicle: Klucel (hydroxypropylcellulose) (HPC)
[11] = dose: 400.0 mg/kg/injection, schedule: Q04DX002 (ip), vehicle: Klucel (hydroxypropylcellulose) (HPC)

Measured: T/C

CCOC(=O)N(CCCCCCNC(c1ccccc1)S(=O)(=O)O)c1ccccc1 (stereo unspecified)
inactive: dose: 6.0 mg/kg/injection, schedule: Q01DX009 (ip), vehicle: saline 109 % of control | dose: 12.0 mg/kg/injection, schedule: Q01DX009 (ip), vehicle: saline 103 % of control | dose: 25.0 mg/kg/injection, schedule: Q01DX009 (ip), vehicle: saline 106 % of control | dose: 50.0 mg/kg/injection, schedule: Q01DX009 (ip), vehicle: saline 97 % of control | dose: 100.0 mg/kg/injection, schedule: Q01DX001 (ip), vehicle: carboxymethylcellulose (CMC) 98 % of control | dose: 100.0 mg/kg/injection, schedule: Q01DX009 (ip), vehicle: saline 86 % of control

O=C(Nc1ccc(Cl)c(Cl)c1)Oc1cccc(NC(=S)Nc2ccccc2)c1
inactive: [1] 94 % of control | [2] 94 % of control | dose: 400.0 mg/kg/injection, schedule: Q01DX009 (ip), vehicle: Klucel (hydroxypropylcellulose) (HPC) 94 % of control

NC(=O)C(N)CO (stereo unspecified)
inactive: [3] 96 % of control | [4] 104 % of control | dose: 400.0 mg/kg/injection, schedule: Q04DX002 (ip), vehicle: saline 111 % of control

CCCC(OC(C)=O)C(Cl)(Cl)Cl (stereo unspecified)
inactive: dose: 50.0 mg/kg/injection, schedule: Q01DX009 (ip), vehicle: Klucel (hydroxypropylcellulose) (HPC) 103 % of control | [1] 107 % of control | [5] 97 % of control | [6] 97 % of control

c1ccc(C2=NNC(c3ccccn3)=NN2)nc1
inactive: dose: 100.0 mg/kg/injection, schedule: Q04DX003 (ip), vehicle: saline with Tween-80 96 % of control | dose: 200.0 mg/kg/injection, schedule: Q04DX003 (ip), vehicle: saline with Tween-80 96 % of control | dose: 400.0 mg/kg/injection, schedule: Q04DX003 (ip), vehicle: saline with Tween-80 102 % of control

CCCCOCc1c(CO)cnc(C)c1O
inactive: dose: 25.0 mg/kg/injection, schedule: Q04DX002 (ip), vehicle: saline 99 % of control | [7] 96 % of control | [3] 93 % of control and 96 % of control

CCCCC(CC)CCC(=O)CC(C)C (stereo unspecified)
inactive: [1] 91 % of control | [5] 108 % of control | [2] 102 % of control | [6] 98 % of control | dose: 400.0 mg/kg/injection, schedule: Q04DX003 (ip), vehicle: Klucel (hydroxypropylcellulose) (HPC) 98 % of control

Nc1ncc2[nH]c(I)nc2n1
inactive: dose: 5.0 mg/kg/injection, schedule: Q01DX001 (ip), vehicle: saline 98 % of control

COc1ccc([N+](=O)[O-])c2c(C)cc(=O)[nH]c12
inactive: dose: 100.0 mg/kg/injection, schedule: Q01DX001 (ip), vehicle: Klucel (hydroxypropylcellulose) (HPC) 100 % of control | [1] 104 % of control | dose: 200.0 mg/kg/injection, schedule: Q01DX001 (ip), vehicle: Klucel (hydroxypropylcellulose) (HPC) 94 % of control | [2] 97 % of control | dose: 400.0 mg/kg/injection, schedule: Q01DX001 (ip), vehicle: Klucel (hydroxypropylcellulose) (HPC) 94 % of control

O=c1cccc2n1Cc1cc3ccccc3nc1-2
inactive: dose: 37.5 mg/kg/injection, schedule: Q04DX003 (ip), vehicle: saline 95 % of control | dose: 75.0 mg/kg/injection, schedule: Q04DX003 (ip), vehicle: saline 89 % of control

CC(C)c1ccc(NC(=O)Nc2cc(Cl)ccc2Cl)cc1
inactive: [8] 89 % of control | dose: 200.0 mg/kg/injection, schedule: Q04DX003 (ip), vehicle: gum acacia 89 % of control | dose: 400.0 mg/kg/injection, schedule: Q01DX009 (ip), vehicle: gum acacia 89 % of control | dose: 400.0 mg/kg/injection, schedule: Q04DX003 (ip), vehicle: gum acacia 87 % of control

COC(OC)c1cccc([N+](=O)[O-])c1
inactive: dose: 50.0 mg/kg/injection, schedule: Q01DX001 (ip), vehicle: saline 111 % of control | dose: 100.0 mg/kg/injection, schedule: Q01DX001 (ip), vehicle: saline 107 % of control | dose: 200.0 mg/kg/injection, schedule: Q01DX001 (ip), vehicle: saline 102 % of control | dose: 400.0 mg/kg/injection, schedule: Q01DX001 (ip), vehicle: saline 100 % of control

FC(F)(F)c1cccc(-n2nncc2-c2ccc(Cl)cc2)c1
inactive: [9] 96 % of control | [10] 101 % of control | [11] 96 % of control

CCCc1cccc[n+]1CC(=O)c1ccccc1
inactive: dose: 6.25 mg/kg/injection, schedule: Q01DX009 (ip), vehicle: saline sonified 115 % of control | dose: 12.5 mg/kg/injection, schedule: Q01DX009 (ip), vehicle: saline sonified 107 % of control | dose: 25.0 mg/kg/injection, schedule: Q01DX009 (ip), vehicle: saline sonified 91 % of control

CCCCS(=O)(=O)c1nc2ccc([N+](=O)[O-])cc2s1
inactive: dose: 100.0 mg/kg/injection, schedule: Q04DX002 (ip), vehicle: saline with Tween-80 92 % of control | dose: 200.0 mg/kg/injection, schedule: Q04DX002 (ip), vehicle: saline with Tween-80 95 % of control

NC(=O)N/N=C1\CC2CC1C1CCCC21 (stereo unspecified)
inactive: dose: 100.0 mg/kg/injection, schedule: Q04DX003 (ip), vehicle: other 104 % of control | dose: 200.0 mg/kg/injection, schedule: Q04DX003 (ip), vehicle: other 98 % of control | dose: 400.0 mg/kg/injection, schedule: Q04DX003 (ip), vehicle: other 94 % of control

C/C(=C\Br)OC1CCCCO1 (stereo unspecified)
inactive: dose: 100.0 mg/kg/injection, schedule: Q01DX009 (ip), vehicle: acetone 96 % of control | dose: 200.0 mg/kg/injection, schedule: Q01DX009 (ip), vehicle: acetone 96 % of control | dose: 400.0 mg/kg/injection, schedule: Q01DX009 (ip), vehicle: acetone 92 % of control

O=C(Nc1cccc(C(F)(F)F)c1)Oc1ccc(F)cc1Cl
inactive: dose: 25.0 mg/kg/injection, schedule: Q01DX009 (ip), vehicle: gum acacia 100 % of control | dose: 50.0 mg/kg/injection, schedule: Q01DX009 (ip), vehicle: gum acacia 98 % of control | [8] 88 % of control

CC(=O)OC1C(C[N+](=O)[O-])OC(n2cnc3c(NC(=O)c4ccccc4)ncnc32)C(OC(C)=O)C1OC(C)=O (stereo unspecified)
inactive: [7] 102 % of control | [3] 100 % of control | [4] 121 % of control

CCN(CC)Cc1ccccc1COC(=O)c1ccc([N+](=O)[O-])cc1
inactive: [9] 97 % of control | [10] 94 % of control | [11] 101 % of control
